Reference: PubChem BioAssay AID2060901 (Molecular Pharmacology Branch, DTP, NCI, 2025)
Values belong to the molecule of their own block, whether it stands above or below them.

Tested on: 422866-222-R5-J1-PDC complex spheroids viability
Test: Anticancer human tumor 422866-222-R5-J1-PDC patient-derived pancreatic adenocarcinoma cell line growth inhibition [RAS]
Conditions: for IC50: curve of first compound; for viability, T/C: stronger effect = lower value
Outline: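 Agents were tested in combination matrices in half-log decrements from a top concentration at or near clinical Cmax (10 microM if undetermined). Targets were multi-cell spheroids of tumour lines plus HUVEC and MSC stromal cells.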

[1] = second compound 0.000949 µM, first compound 0.0316 µM
[2] = second compound 0.000949 µM, first compound 0.1 µM
[3] = second compound 0.000949 µM, first compound 0.316 µM
[4] = second compound 0.000949 µM, first compound 1 µM
[5] = second compound 0.000949 µM, first compound 3.16 µM
[6] = second compound 0.000949 µM, first compound 10 µM
[7] = second compound 0.003 µM, first compound 0.0316 µM
[8] = second compound 0.003 µM, first compound 0.1 µM
[9] = second compound 0.003 µM, first compound 0.316 µM
[10] = second compound 0.003 µM, first compound 1 µM
[11] = second compound 0.003 µM, first compound 3.16 µM
[12] = second compound 0.003 µM, first compound 10 µM
[13] = second compound 0.00949 µM, first compound 0.0316 µM
[14] = second compound 0.00949 µM, first compound 0.1 µM
[15] = second compound 0.00949 µM, first compound 0.316 µM
[16] = second compound 0.00949 µM, first compound 1 µM
[17] = second compound 0.00949 µM, first compound 3.16 µM
[18] = second compound 0.00949 µM, first compound 10 µM
[19] = second compound 0.03 µM, first compound 0.0316 µM
[20] = second compound 0.03 µM, first compound 0.1 µM
[21] = second compound 0.03 µM, first compound 0.316 µM
[22] = second compound 0.03 µM, first compound 1 µM
[23] = second compound 0.03 µM, first compound 3.16 µM
[24] = second compound 0.03 µM, first compound 10 µM
[25] = second compound 0.0949 µM, first compound 0.0316 µM
[26] = second compound 0.0949 µM, first compound 0.1 µM
[27] = second compound 0.0949 µM, first compound 0.316 µM
[28] = second compound 0.0949 µM, first compound 1 µM
[29] = second compound 0.0949 µM, first compound 3.16 µM
[30] = second compound 0.0949 µM, first compound 10 µM
[31] = second compound 0.3 µM, first compound 0.0316 µM
[32] = second compound 0.3 µM, first compound 0.1 µM
[33] = second compound 0.3 µM, first compound 0.316 µM
[34] = second compound 0.3 µM, first compound 1 µM
[35] = second compound 0.3 µM, first compound 3.16 µM
[36] = second compound 0.3 µM, first compound 10 µM
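Further: spheroids exposed to compounds for 7 days.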
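Wherever viability, T/C is given: 100% = DMSO vehicle control viability.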

IC50 (second compound 0.000949 µM): < 31.6 nM | IC50 (second compound 0.003 µM): < 31.6 nM | IC50 (second compound 0.00949 µM): < 31.6 nM | IC50 (second compound 0.03 µM): < 31.6 nM | IC50 (second compound 0.0949 µM): < 31.6 nM | IC50 (second compound 0.3 µM): < 31.6 nM
SMILES: C[C@@H](NC(=O)c1ncnc(N)c1Cl)c1ncc(C(=O)Nc2cc(C(F)(F)F)c(Cl)cn2)s1 + CCn1c(-c2cccnc2C(C)OC)c2c3cc(ccc31)N1CCOC(CC(NC(=O)C(C(C)C)N(C)C(=O)C3(F)CCN(C(=O)C#CC(C)(C)N(C)C)CC3)C(=O)N3CCCC(N3)C(=O)OCC(C)(C)C2)C1
viability, T/C [1]: 32% | viability, T/C [2]: 30.9% | viability, T/C [3]: 30.3% | viability, T/C [4]: 32.5% | viability, T/C [5]: 29% | viability, T/C [6]: 37% | viability, T/C [7]: 25.3% | viability, T/C [8]: 24% | viability, T/C [9]: 28.5% | viability, T/C [10]: 25.6% | viability, T/C [11]: 25.5% | viability, T/C [12]: 26.3% | viability, T/C [13]: 26.9% | viability, T/C [14]: 23.2% | viability, T/C [15]: 23.7% | viability, T/C [16]: 22.2% | viability, T/C [17]: 24.6% | viability, T/C [18]: 23.6% | viability, T/C [19]: 24.7% | viability, T/C [20]: 19.7% | viability, T/C [21]: 22.7% | viability, T/C [22]: 21.7% | viability, T/C [23]: 25.2% | viability, T/C [24]: 21% | viability, T/C [25]: 17.8% | viability, T/C [26]: 18.4% | viability, T/C [27]: 21.8% | viability, T/C [28]: 20.2% | viability, T/C [29]: 20.7% | viability, T/C [30]: 21.7% | viability, T/C [31]: 18% | viability, T/C [32]: 17.8% | viability, T/C [33]: 21.5% | viability, T/C [34]: 20% | viability, T/C [35]: 21.7% | viability, T/C [36]: 26.1%

IC50 (second compound 0.000949 µM): < 31.6 nM | IC50 (second compound 0.003 µM): < 31.6 nM | IC50 (second compound 0.00949 µM): < 31.6 nM | IC50 (second compound 0.03 µM): < 31.6 nM | IC50 (second compound 0.0949 µM): < 31.6 nM | IC50 (second compound 0.3 µM): < 31.6 nM
SMILES: CC(=O)OC12COC1CC(O)C1(C)C(=O)C(O)C3=C(C)C(OC(=O)C(O)C(NC(=O)OC(C)(C)C)c4ccccc4)CC(O)(C(OC(=O)c4ccccc4)C21)C3(C)C (stereo unspecified) + CCn1c(-c2cccnc2C(C)OC)c2c3cc(ccc31)N1CCOC(CC(NC(=O)C(C(C)C)N(C)C(=O)C3(F)CCN(C(=O)C#CC(C)(C)N(C)C)CC3)C(=O)N3CCCC(N3)C(=O)OCC(C)(C)C2)C1
viability, T/C [1]: 23.9% | viability, T/C [2]: 23.8% | viability, T/C [3]: 25.8% | viability, T/C [4]: 27.3% | viability, T/C [5]: 26.3% | viability, T/C [6]: 25.9% | viability, T/C [7]: 19.9% | viability, T/C [8]: 19.6% | viability, T/C [9]: 19% | viability, T/C [10]: 21.1% | viability, T/C [11]: 19.8% | viability, T/C [12]: 21.1% | viability, T/C [13]: 19.9% | viability, T/C [14]: 19% | viability, T/C [15]: 20.1% | viability, T/C [16]: 21.5% | viability, T/C [17]: 22.5% | viability, T/C [18]: 19.6% | viability, T/C [19]: 15.4% | viability, T/C [20]: 19.2% | viability, T/C [21]: 21.6% | viability, T/C [22]: 19% | viability, T/C [23]: 21.3% | viability, T/C [24]: 23.9% | viability, T/C [25]: 14.5% | viability, T/C [26]: 16.5% | viability, T/C [27]: 15.3% | viability, T/C [28]: 16.4% | viability, T/C [29]: 21.6% | viability, T/C [30]: 20.9% | viability, T/C [31]: 16.2% | viability, T/C [32]: 17.9% | viability, T/C [33]: 17.6% | viability, T/C [34]: 16.8% | viability, T/C [35]: 18.4% | viability, T/C [36]: 19.9%

IC50 (second compound 0.0316 µM): 2.85 nM | IC50 (second compound 0.1 µM): 2.74 nM | IC50 (second compound 0.316 µM): 95.2 nM | IC50 (second compound 1 µM): < 0.949 nM | IC50 (second compound 3.16 µM): < 0.949 nM | IC50 (second compound 10 µM): < 0.949 nM
SMILES: CCc1c2c(nc3ccc(O)cc13)-c1cc3c(c(=O)n1C2)COC(=O)[C@]3(O)CC + C#Cc1c(F)ccc2cc(O)cc(-c3ncc4c(N5CC6CCC(C5)N6)nc(OCC56CCCN5CC(F)C6)nc4c3F)c12
viability, T/C (second compound 0.0316 µM, first compound 0.000949 µM): 80.6% | viability, T/C (second compound 0.0316 µM, first compound 0.003 µM): 49.4% | viability, T/C (second compound 0.0316 µM, first compound 0.00949 µM): 39.9% | viability, T/C (second compound 0.0316 µM, first compound 0.03 µM): 41.9% | viability, T/C (second compound 0.0316 µM, first compound 0.0949 µM): 48.5% | viability, T/C (second compound 0.0316 µM, first compound 0.3 µM): 45.5% | viability, T/C (second compound 0.1 µM, first compound 0.000949 µM): 75.2% | viability, T/C (second compound 0.1 µM, first compound 0.003 µM): 49.4% | viability, T/C (second compound 0.1 µM, first compound 0.00949 µM): 35.2% | viability, T/C (second compound 0.1 µM, first compound 0.03 µM): 49.8% | viability, T/C (second compound 0.1 µM, first compound 0.0949 µM): 58.4% | viability, T/C (second compound 0.1 µM, first compound 0.3 µM): 36.1% | viability, T/C (second compound 0.316 µM, first compound 0.000949 µM): 65.4% | viability, T/C (second compound 0.316 µM, first compound 0.003 µM): 36.4% | viability, T/C (second compound 0.316 µM, first compound 0.00949 µM): 49.8% | viability, T/C (second compound 0.316 µM, first compound 0.03 µM): 56.5% | viability, T/C (second compound 0.316 µM, first compound 0.0949 µM): 49.2% | viability, T/C (second compound 0.316 µM, first compound 0.3 µM): 34.7% | viability, T/C (second compound 1 µM, first compound 0.000949 µM): 48.6% | viability, T/C (second compound 1 µM, first compound 0.003 µM): 35.9% | viability, T/C (second compound 1 µM, first compound 0.00949 µM): 35.4% | viability, T/C (second compound 1 µM, first compound 0.03 µM): 38.2% | viability, T/C (second compound 1 µM, first compound 0.0949 µM): 53.3% | viability, T/C (second compound 1 µM, first compound 0.3 µM): 31.2% | viability, T/C (second compound 3.16 µM, first compound 0.000949 µM): 26.3% | viability, T/C (second compound 3.16 µM, first compound 0.003 µM): 28.7% | viability, T/C (second compound 3.16 µM, first compound 0.00949 µM): 22.4% | viability, T/C (second compound 3.16 µM, first compound 0.03 µM): 22.9% | viability, T/C (second compound 3.16 µM, first compound 0.0949 µM): 25.6% | viability, T/C (second compound 3.16 µM, first compound 0.3 µM): 25.1% | viability, T/C (second compound 10 µM, first compound 0.000949 µM): 23% | viability, T/C (second compound 10 µM, first compound 0.003 µM): 21% | viability, T/C (second compound 10 µM, first compound 0.00949 µM): 20.7% | viability, T/C (second compound 10 µM, first compound 0.03 µM): 18.1% | viability, T/C (second compound 10 µM, first compound 0.0949 µM): 19.5% | viability, T/C (second compound 10 µM, first compound 0.3 µM): 13.5%
